Laboratory results taken from patent US20060106102A1, “Napththalene derivatives which inhibit the cytokine or biological activity of microphage migration inhibitory factor (mif)” (priority 2002, published 2006).

System: IL-1-induced COX-2 expression
Assay: IL-1-induced COX-2 expression in S112 human dermal fibroblasts (MIF-dependent event), flow cytometry
Assay type: cell-based
Experimental: The activity of each compound was studied in a bioassay utilising MIF-dependent activation of human dermal fibroblasts. […] IL-1-induced COX-2 expression is therefore a MIF-dependent event. […] Prior to experimentation, cells were seeded at 10^5 cells/ml in RPMI/0.1% BSA for 18 hours. […] Cells permeabilised with 0.1% saponin were sequentially labelled with a mouse anti-human COX-2 monoclonal antibody and with sheep-anti-mouse F(ab)2 fragment labelled with fluoroscein isothiocyanate. Cellular fluorescence was determined using a flow cytometer. At least 5000 events were counted for each reading, each of which was performed in duplicate, and the results expressed in mean fluorescence intensity (MFI) after subtraction of negative control-labelled cell fluorescence. The effect of each compound was determined by subtracting the IL-1+compound-treated cell MFI from the IL-1-treated cell MFI and expressed as % inhibition. In each case the % inhibition of IL-1-induced COX2 expression is shown as the mean, or mean±SEM where results are available from multiple experiments.

Compound: O=S(=O)(O)c1ccc2cc(O)c(O)cc2c1 [Compound 6, 6,7-dihydroxynaphthalene-2-sulfonic acid]
- inhibition of IL1-induced COX-2 expression, dose response (FIG. 3) (0.01, 0.1, 1.0, 10 and 50 μM): Dose-dependent inhibition
- inhibition at 1 µM (Homo sapiens, Fibroblast, compound 1 uM, IL-1 0.1 ng/ml, 6 hours, S112 cells, read-out: % inhibition of IL-1-induced COX2 expression (Effect)): 16.4%
- inhibition at 10 µM (Homo sapiens, Fibroblast, compound 10 uM, IL-1 0.1 ng/ml, 6 hours, S112 cells, read-out: % inhibition of IL-1-induced COX2 expression (Effect)): 22.4%
- inhibition at 25 µM (Homo sapiens, Fibroblast, compound 25 uM, IL-1 0.1 ng/ml, 6 hours, S112 cells, read-out: % inhibition of IL-1-induced COX2 expression (Effect)): 21.3%
- inhibition at 50 µM (Homo sapiens, Fibroblast, compound 50 uM, IL-1 0.1 ng/ml, 6 hours, S112 cells, read-out: % inhibition of IL-1-induced COX2 expression (Effect)): 25.7%
- inhibition at 100 µM (Homo sapiens, Fibroblast, compound 100 uM, IL-1 0.1 ng/ml, 6 hours, S112 cells, read-out: % inhibition of IL-1-induced COX2 expression (Effect)): 24.4%
- % inhibition (IL-1 induced COX-2 expression) (Table 2 experiment 1: compound alone, 50 μM): 38.0%
